Data from PubChem BioAssay (NCI).
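Each compound was tested at five concentrations against cells in 96-well plates for 48 hours. GI50 is the concentration that inhibits growth by half. TGI: total growth inhibition.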

Assays:
Test in all cases: NCI-60 cell line screen, 48 h
786-0 renal = test system: 786-0 renal
A498 renal = test system: A498 renal
A549 NSCLC = test system: A549 NSCLC
ACHN renal = test system: ACHN renal
BT-549 breast = test system: BT-549 breast
CAKI-1 renal = test system: CAKI-1 renal
COLO 205 colon = test system: COLO 205 colon
DU-145 prostate = test system: DU-145 prostate
HCC-2998 colon = test system: HCC-2998 colon
HCT-15 colon = test system: HCT-15 colon
HL-60(TB) leukemia = test system: HL-60(TB) leukemia
HOP-62 NSCLC = test system: HOP-62 NSCLC
HOP-92 NSCLC = test system: HOP-92 NSCLC
HT29 colon = test system: HT29 colon
IGROV1 ovarian = test system: IGROV1 ovarian
K-562 leukemia = test system: K-562 leukemia
KM12 colon = test system: KM12 colon
LOX IMVI melanoma = test system: LOX IMVI melanoma
M14 melanoma = test system: M14 melanoma
MALME-3M melanoma = test system: MALME-3M melanoma
MCF7 breast = test system: MCF7 breast
MDA-MB-231 breast = test system: MDA-MB-231 breast
MDA-MB-435 = test system: MDA-MB-435
MDA-MB-468 breast = test system: MDA-MB-468 breast
NCI-H226 lung = test system: NCI-H226 lung
NCI-H23 lung = test system: NCI-H23 lung
NCI-H522 lung = test system: NCI-H522 lung
OVCAR-3 ovarian = test system: OVCAR-3 ovarian
OVCAR-4 ovarian = test system: OVCAR-4 ovarian
OVCAR-5 ovarian = test system: OVCAR-5 ovarian
PC-3 prostate = test system: PC-3 prostate
RPMI-8226 leukemia = test system: RPMI-8226 leukemia
SF-268 CNS = test system: SF-268 CNS
SF-539 CNS = test system: SF-539 CNS
SK-MEL-2 melanoma = test system: SK-MEL-2 melanoma
SK-MEL-28 melanoma = test system: SK-MEL-28 melanoma
SK-MEL-5 melanoma = test system: SK-MEL-5 melanoma
SK-OV-3 ovarian = test system: SK-OV-3 ovarian
SNB-19 CNS = test system: SNB-19 CNS
SNB-75 CNS = test system: SNB-75 CNS
SW-620 colon = test system: SW-620 colon
T-47D breast = test system: T-47D breast
TK-10 renal = test system: TK-10 renal
U251 CNS = test system: U251 CNS
UACC-257 melanoma = test system: UACC-257 melanoma
UACC-62 melanoma = test system: UACC-62 melanoma
UO-31 renal = test system: UO-31 renal

With CC(=O)Oc1ccccc1C(=O)[Se]CC(=O)Nc1cccc(C(F)(F)F)c1 the GI50 (786-0 renal) was 2.21 µM, the TGI (786-0 renal) was 4.62 µM and the GI50 (A498 renal) was 1.45 µM. It also gave a TGI (A498 renal) of 2.95 µM, a GI50 (A549 NSCLC) of 1.66 µM and a TGI (A549 NSCLC) of 3.8 µM. It also gave a GI50 (ACHN renal) of 2.39 µM, a TGI (ACHN renal) of 6.36 µM and a GI50 (BT-549 breast) of 2.13 µM. The TGI (BT-549 breast) was 3.61 µM, the GI50 (CAKI-1 renal) was 0.198 µM and the TGI (CAKI-1 renal) was 0.361 µM. It also gave a GI50 (COLO 205 colon) of 4.35 µM, a TGI (COLO 205 colon) of 17 µM and a GI50 (DU-145 prostate) of 2.09 µM. For the same compound, the TGI (DU-145 prostate) was 4.61 µM, the GI50 (HCC-2998 colon) was 11.9 µM and the TGI (HCC-2998 colon) was 25.7 µM. It also gave a GI50 (HCT-15 colon) of 1.42 µM, a TGI (HCT-15 colon) of 2.85 µM and a GI50 (HL-60(TB) leukemia) of 1.78 µM. It also gave a TGI (HL-60(TB) leukemia) of 5.27 µM, a GI50 (HOP-62 NSCLC) of 2.91 µM and a TGI (HOP-62 NSCLC) of 5.44 µM. It also gave a GI50 (HOP-92 NSCLC) of 0.763 µM, a TGI (HOP-92 NSCLC) of 2.15 µM and a GI50 (HT29 colon) of 1.88 µM. For the same compound, the TGI (HT29 colon) was 5.16 µM, the GI50 (IGROV1 ovarian) was 2.05 µM and the TGI (IGROV1 ovarian) was 4 µM. The GI50 (K-562 leukemia) was 5.59 µM, the TGI (K-562 leukemia) was 55.3 µM and the GI50 (KM12 colon) was 5.04 µM. The TGI (KM12 colon) was 19.5 µM, the GI50 (LOX IMVI melanoma) was 1.94 µM and the TGI (LOX IMVI melanoma) was 3.65 µM. For the same compound, the GI50 (M14 melanoma) was 1.95 µM, the TGI (M14 melanoma) was 3.83 µM and the GI50 (MALME-3M melanoma) was 1.57 µM. For the same compound, the TGI (MALME-3M melanoma) was 3.04 µM, the GI50 (MCF7 breast) was 2.75 µM and the TGI (MCF7 breast) was 12.4 µM. It also gave a GI50 (MDA-MB-231 breast) of 2.31 µM, a TGI (MDA-MB-231 breast) of 4.18 µM and a GI50 (MDA-MB-435) of 3.12 µM. The TGI (MDA-MB-435) was 5.41 µM, the GI50 (MDA-MB-468 breast) was 1.75 µM and the TGI (MDA-MB-468 breast) was 3.35 µM. For the same compound, the GI50 (NCI-H226 lung) was 3.11 µM, the TGI (NCI-H226 lung) was 5.55 µM and the GI50 (NCI-H23 lung) was 1.5 µM. For the same compound, the TGI (NCI-H23 lung) was 3.87 µM, the GI50 (NCI-H522 lung) was 1.83 µM and the TGI (NCI-H522 lung) was 3.81 µM. For the same compound, the GI50 (OVCAR-3 ovarian) was 1.71 µM, the TGI (OVCAR-3 ovarian) was 4.38 µM and the GI50 (OVCAR-4 ovarian) was 5.19 µM. The TGI (OVCAR-4 ovarian) was 60.9 µM, the GI50 (OVCAR-5 ovarian) was 2.15 µM and the TGI (OVCAR-5 ovarian) was 5.12 µM. For the same compound, the GI50 (PC-3 prostate) was 5.23 µM, the TGI (PC-3 prostate) was 21.9 µM and the GI50 (RPMI-8226 leukemia) was 5.44 µM. It also gave a TGI (RPMI-8226 leukemia) of 85 µM, a GI50 (SF-268 CNS) of 2.69 µM and a TGI (SF-268 CNS) of 5.87 µM. The GI50 (SF-539 CNS) was 1.87 µM, the TGI (SF-539 CNS) was 3.34 µM and the GI50 (SK-MEL-2 melanoma) was 2.84 µM. The TGI (SK-MEL-2 melanoma) was 10.9 µM, the GI50 (SK-MEL-28 melanoma) was 2.06 µM and the TGI (SK-MEL-28 melanoma) was 4.35 µM. The GI50 (SK-MEL-5 melanoma) was 1.29 µM, the TGI (SK-MEL-5 melanoma) was 2.69 µM and the GI50 (SK-OV-3 ovarian) was 4.22 µM. For the same compound, the TGI (SK-OV-3 ovarian) was 20.3 µM, the GI50 (SNB-19 CNS) was 1.86 µM and the TGI (SNB-19 CNS) was 3.8 µM. For the same compound, the GI50 (SNB-75 CNS) was 2.47 µM, the TGI (SNB-75 CNS) was 5.94 µM and the GI50 (SW-620 colon) was 1.46 µM. It also gave a TGI (SW-620 colon) of 3.11 µM, a GI50 (T-47D breast) of 7.09 µM and a TGI (T-47D breast) of 49.5 µM. For the same compound, the GI50 (TK-10 renal) was 2.07 µM, the TGI (TK-10 renal) was 4.71 µM and the GI50 (U251 CNS) was 2.12 µM. It also gave a TGI (U251 CNS) of 5.3 µM, a GI50 (UACC-257 melanoma) of 3.21 µM and a TGI (UACC-257 melanoma) of 9.82 µM. For the same compound, the GI50 (UACC-62 melanoma) was 1.38 µM, the TGI (UACC-62 melanoma) was 3.07 µM and the GI50 (UO-31 renal) was 1.23 µM. For the same compound, the TGI (UO-31 renal) was 2.56 µM.
